Results: US9403800B2, “Compounds for inhibition of cancer cell proliferation” (ChemRegen, Inc., priority 2012, dated 2016)

How the values were obtained:
Type in all cases: cell-based
[1] = cytotoxicity (Vibrant Cytotox assay), LNCap; details: human, LNCap cells
[2] = system: HCT-116 and MCF-7 cancer cells; p53 −/− isogenic HCT-116 cells; assay: morphology change of cancer cells with and without p53
Text: Using the same treatment conditions, this morphology change was not observed in […] cells lacking p53 (i.e., −/− p53, isogenic HCT-116 cells) highlighting the integral importance of p53 protein in the mechanism of action of the disclosed compounds.

[3] = system: MDA-MB-231; assay: inhibition of proliferation (PicoGreen DNA assay), MDA-MB-231; details: Homo sapiens
Experimental: (§1) We tested a subset of the 50 sulfonamide analogues for inhibition of proliferation of the MDA-MB-231, PC-3, MCF-7, and HCT-116 cancer cell lines. Following plating of the cells (24 hrs) in eight identical 96-well plates, the cells were treated with either Compound 1, 4, 15, or vehicle (DMSO) using a dose range of 1.6 to 5000 nM. After the lysis of cells, the cell lysate was resuspended in 25 μl PBS and the DNA was quantified using a PicoGreen assay by measuring fluorescence at Ex490 nm/Em535 nm. Cell proliferation was inhibited by Compounds 1, 4, and 15 for all the cancer cell lines tested with inhibition constants listed in Table 2.

[4] = cytotoxicity (Vibrant Cytotox assay), HCT-116; details: human, HCT-116 cells; HCT-116, 24 hrs
Experimental: (§2) Given Compounds 1, 4, and 15 inhibited cancer cell proliferation and stimulated apoptosis, we tested the effects compounds 1, 4, and 15 on cancer cell viability and cytotoxicity. The MDA-MB-231, MCF-7, PC-3, and HCT-116 cells were treated with the indicated compounds for 24 hrs. over a dose range from 1.6 to 5000 nM. Viability and cytotoxicity were then measured by the Alamar Blue and Vibrant Cytotox assays respectively.

[5] = system: Endogenous Target Genes for Wnt & Apoptotic Pathways in LNCAP; assay: qPCR of Wnt and pro-apoptotic target genes, LNCAP; set-up: MYC expression, % change relative to DMSO control / CCDN1 expression, % change relative to DMSO control / BAX expression, % change relative to DMSO control / BAK expression, % change relative to DMSO control / BBC3 expression, % change relative to DMSO control / FOS expression, % change relative to DMSO control: concentration or dose not given beside the values; details: 24 hrs, qPCR normalized to 36B4
[6] = system: PC-3; assay: inhibition of proliferation (PicoGreen DNA assay), PC-3; details: Homo sapiens
Experimental: as §1

[7] = system: HCT-116; assay: inhibition of proliferation (PicoGreen DNA assay), HCT-116; details: Homo sapiens
Experimental: as §1

[8] = system: HCT-116; assay: stimulation of apoptosis, Caspase 3/7 cleavage (Caspase-Glo Kit), HCT-116; details: Homo sapiens, HCT-116, 24 hrs
Experimental: Given Compounds 1, 4, and 15 inhibited cancer cell proliferation, we tested whether compounds 1, 4, and 15 stimulated cancer cell apoptosis. The MDA-MB-231, MCF-7, PC-3, and HCT-116 cells were treated with the indicated compounds for 24 hrs. over a dose range from 1.6 to 5000 nM. Apoptosis was then measured by monitoring Caspase 3/7 cleavage (Caspase-Glo Kit).

[9] = cytotoxicity (Vibrant Cytotox assay), MDA-MB-231; details: human, MDA-MB-231 cells; MDA-MB-231, 24 hrs
Experimental: as §2

[10] = system: Endogenous Target Genes for Wnt & Apoptotic Pathways in MDA-MB 231; assay: qPCR of Wnt and pro-apoptotic target genes, MDA-MB 231; set-up: concentration or dose not given beside the values; details: MDA-MB 231, 24 hrs, qPCR normalized to 36B4
Experimental: (§3) Given the effects of Compounds 1, 4, and 15 on biological functions (e.g., proliferation, viability, and apoptosis) in several cancer cell lines, we tested the effects of compounds 1, 4, and 15 on regulation of endogenous Wnt and pro-apoptotic gene expression. MDA-MB-231, MCF-7, PC-3, and HCT-116 cancerncells were treated with the indicated compounds for 24 hrs. over a dose range from 1.6 to 5000 nM. Gene expression was measured using qPCR, normalized to the housekeeping gene, 36B4, and calculated % change relative to DMSO control. NC, no change.

[11] = system: MDA-MB-231; assay: viability (Alamar Blue), MDA-MB-231; details: Homo sapiens; MDA-MB-231, 24 hrs
Experimental: as §2

[12] = system: Endogenous Target Genes for Wnt & Apoptotic Pathways in HCT-116; assay: qPCR of Wnt and pro-apoptotic target genes, HCT-116; set-up: MYC expression, % change relative to DMSO control / CCDN1 expression, % change relative to DMSO control / BAX expression, % change relative to DMSO control / BBC3 expression, % change relative to DMSO control / FOS expression, % change relative to DMSO control: concentration or dose not given beside the values; details: HCT-116, 24 hrs, qPCR normalized to 36B4
Experimental: as §3

[13] = system: LNCap; assay: viability (Alamar Blue), LNCap; details: Homo sapiens, 24 hrs
[14] = system: Endogenous Target Genes for Wnt & Apoptotic Pathways in MCF-7; assay: qPCR of Wnt and pro-apoptotic target genes, MCF-7; set-up: MYC expression, % change relative to DMSO control / BAX expression, % change relative to DMSO control / BAK expression, % change relative to DMSO control / BBC3 expression, % change relative to DMSO control / FOS expression, % change relative to DMSO control: concentration or dose not given beside the values; details: MCF-7, 24 hrs, qPCR normalized to 36B4
Experimental: as §3

[15] = system: HCT-116; assay: viability (Alamar Blue), HCT-116; details: Homo sapiens; HCT-116, 24 hrs
Experimental: as §2

[16] = system: Endogenous Target Genes for Wnt & Apoptotic Pathways in PC-3; assay: qPCR of Wnt and pro-apoptotic target genes, PC-3; set-up: concentration or dose not given beside the values; details: PC-3, 24 hrs, qPCR normalized to 36B4
Experimental: as §3

CN1CCN(S(=O)(=O)c2ccc(N3CCCC3=O)cc2)c2ccccc21 [Compound 15, 1-(4-(4-methyl-3,4-dihydroquinoxalin-1(2H)-ylsulfonyl)phenyl)pyrrolidin-2-one]
IC50 at 24 h [1]: > 5000 nM
morphology change in cancer cells with wild-type and mutant p53 ([2]; HCT-116 and MCF-7, 500 nM for 24 hours): morphology change from a flat adherent cell to a rounded non-adherent one
morphology change in cells lacking p53 ([2]; −/− p53 isogenic HCT-116 cells, 500 nM for 24 hours): not observed
IC50 [3]: 25 nM
IC50 at 24 h [4]: > 5000 nM
BAK expression, % change relative to DMSO control [5]: −45%
BAX expression, % change relative to DMSO control [5]: −58%
BBC3 expression, % change relative to DMSO control [5]: −55%
CCDN1 expression, % change relative to DMSO control [5]: −28%
FOS expression, % change relative to DMSO control [5]: −25%
JUN expression, % change relative to DMSO control [5]: +45%
MYC expression, % change relative to DMSO control [5]: −45%
IC50 [6]: 20 nM
IC50 [7]: 15 nM
IC50 [8]: 15 nM
IC50 at 24 h [9]: > 5000 nM
BAK expression, % change relative to DMSO control [10]: −20%
BAX expression, % change relative to DMSO control [10]: −62%
BBC3 expression, % change relative to DMSO control [10]: −65%
CCDN1 expression, % change relative to DMSO control [10]: −22%
FOS expression, % change relative to DMSO control [10]: −10%
JUN expression, % change relative to DMSO control [10]: −38%
MYC expression, % change relative to DMSO control [10]: −50%
IC50 [11]: 93 nM
BAK expression, % change relative to DMSO control [12]: +98%
BAX expression, % change relative to DMSO control [12]: −5%
BBC3 expression, % change relative to DMSO control [12]: −95%
CCDN1 expression, % change relative to DMSO control [12]: +25%
FOS expression, % change relative to DMSO control [12]: −84%
JUN expression, % change relative to DMSO control [12]: +775%
MYC expression, % change relative to DMSO control [12]: −70%
IC50 [13]: 124 nM
BAK expression, % change relative to DMSO control [14]: +45%
BAX expression, % change relative to DMSO control [14]: −25%
BBC3 expression, % change relative to DMSO control [14]: +75%
CCDN1 expression, % change relative to DMSO control [14]: +50%
FOS expression, % change relative to DMSO control [14]: −75%
JUN expression, % change relative to DMSO control [14]: +150%
MYC expression, % change relative to DMSO control [14]: −50%
IC50 [15]: 9 nM
BAK expression, % change relative to DMSO control [16]: −58%
BAX expression, % change relative to DMSO control [16]: −54%
BBC3 expression, % change relative to DMSO control [16]: −45%
CCDN1 expression, % change relative to DMSO control [16]: −30%
FOS expression, % change relative to DMSO control [16]: −24%
JUN expression, % change relative to DMSO control [16]: −30%
MYC expression, % change relative to DMSO control [16]: −60%
